According to patent publication US20120208744A1, “ANTI-MICROBIAL AGENTS AND COMPOSITIONS AND METHODS OF PRODUCTION AND USE THEREOF” (The Penn State Research Foundation, priority 2011, published 2012):

Legend:
Type in all cases: cell-based, Escherichia coli
[1] = system: TonB-ExbD complex; test: Formaldehyde crosslinking in spheroplasts; conditions: CCCP-treated W3110 spheroplasts, 60 μM
Experimental: Formaldehyde crosslinking in spheroplasts. Spheroplasts were prepared as above for standard assays and treated with DMSO solvent or 60 μM CCCP. A CCCP-treated sample was also treated with proteinase K for 15 min as described above. For formaldehyde crosslinking, spheroplasts were pelleted and resuspended in 100 mM sodium phosphate buffer, pH 6.8 containing 0.25M sucrose and 2 mM MgSO4. For CCCP-treated spheroplasts, CCCP was maintained in the crosslinking buffer. Samples were treated with 1% monomeric paraformaldehyde (inverting to mix) for 15 min at room temperature. Pellets were solubilized at 60° C. in Laemmli sample buffer.

[2] = system: TonB; test: Proteinase K accessibility assay in spheroplasts; conditions: wild-type W3110 spheroplasts; pmf collapsed; 60 μM CCCP or 10 mM DNP
Text: Proteinase K accessibility assays. For reversibility assays, spheroplasts were generated from wild-type cells (W3110) and treated with CCCP to collapse pmf. […] Samples were harvested and treated with proteinase K or left untreated. […] To re-establish pmf for the remaining sample, the proteinase K untreated, CCCP-treated spheroplasts were subsequently pelleted, washed, and resuspended in buffer without CCCP. These washed spheroplasts were divided in half. One sample was re-treated with CCCP, and one was treated with solvent only (DMSO). Both were then treated with proteinase K. As a control, whole cells were also treated with proteinase K or left untreated. All manipulations occurred at 4° C.
For standard assays, spheroplasts were prepared and treated with proteinase K as described previously (Larsen et al, 1999, Mol. Microbiol. 31, 1809-1824). The effect of protonophores was examined after treatment of spheroplasts with 60 μM carbonylcyanide-m-chlorophenylhydrazone (CCCP) or 10 mM DNP compared to an equal volume of solvent only, dimethyl sulfoxide (DMSO). After limited proteolysis, TCA precipitated samples were visualized on immunblots of 11% or 15% SDS polyacrylamide gels with TonB-specific monoclonal antibodies or ExbD-specific polyclonal antibodies, respectively. All manipulations occurred at 4° C.

[3] = system: ferrichrome-mediated iron transport; test: [55Fe]-ferrichrome uptake, ExbD cys substitutions, with or without CuoP treatment; conditions: 0.03 mM CuoP in supplemented 1xM9
Experimental: Since CuoP treatment catalyzed almost 100% dimer formation for some of the cys substitutions, attempts were made to determine activity of the dimeric form. […] The amount of CuoP was reduced 10-fold to 0.03 mM and cells had to be suspended in fully supplemented M9 medium as described in Experimental Procedures.
Activity assays. Initial rates of [^55Fe]-ferrichrome uptake were determined. For assays where cultures were treated with copper-(1,10-phenanthroline)3, harvested cells were pelleted, resuspended in 1×M9 supplemented as described above (no sodium propionate added), and treated with an equal volume 0.06 mM CuoP ([final] 0.03 mM) or 0.5 mM sodium phosphate buffer, pH 7.4 (buffer only) for 5 min, at 37° C. with aeration. Cells were pelleted, and the standard iron transport protocol was followed starting with resuspension in the assay medium.
In all assays the CuoP solution was removed and assays carried out in identical media, but the medium present during the 5 min CuoP treatment was important and differentially affected activity of a wild-type strain.

[4] = system: ferrichrome-mediated iron transport; test: as above; conditions: 0.03 mM CuoP, cells in unsupplemented 1xM9
[5] = system: 55Fe-ferrichrome transport; test: Transport of 55Fe-loaded ferrichrome (ExbD deletion variants)
Experimental: For assays in 1×M9, 37 μM Fe (proteinase K accessibility, [^55Fe]-ferrichrome uptake, formaldehyde crosslinking, and sucrose density gradient fractionation), the following percentages of arabinose were added at subculture to induce expression of ExbD variants near native levels of ExbD: pKP660=no inducer, pKP761=0.0008%, pKP760=0.0008%, pKP759=0.3% glucose (to repress basal levels of overexpression), pKP758=0.002% glucose (to repress basal levels of overexpression), pKP762=0.0006%, pKP757=0.0007%, pKP756=0.006%, pKP755=0.008%, pKP754=0.15%, pKP753=0.18%, pKP752=0.2%, pKP763=0.18%, pKP764=0.2%, pKP724=0.006%.
Activity assays: Spot titer assays were performed. Initial rates of [^55Fe]-ferrichrome uptake were determined.

## N#CC(C#N)=NNc1cccc(Cl)c1 [CCCP, carbonylcyanide-m-chlorophenylhydrazone]
[1]
  TonB-ExbD formaldehyde crosslinked complex: not detected
[2]
  TonB conformation (proteinase K sensitivity) after protonophore treatment: detection of the previously observed proteinase K resistant conformation of TonB

## copper-(1,10-phenanthroline)3 [CuoP, reference compound]
[3]
  effect on iron transport activity of a wild-type strain: did not inhibit activity
[4]
  iron transport of a wild-type strain remaining after CuoP treatment: about 25%

B1: ExbD: wild-type E. coli ExbD protein, plasmid-encoded (pKP1194, exbD in pBAD24) (protein, listed as Escherichia coli)
chain: MAMHLNENLDDNGEMHDINVTPFIDVMLVLLIIFMVAAPLAIVDVKVNLPASTSTPQPRPEKPVYLSVKADNSMFIGNDPVTDETMITALNALTEGKKDITIFFRADKTVDYETLMKVMDTLHQAGYLKIGLVGEETAKAK
[5]; 55Fe-loaded ferrichrome, plasmid-encoded ExbD variant in strain KP1522
  Initial Rate of Transport: 672.2 ± 15.97
[5]; initial rate of variant strain divided by initial rate of wild-type strain x 100, strain KP1522
  % Wild-type Activity: 100%
